Several values for one entry are separate records, joined by “and”; a condition that tells them apart may be missing. Equal entries are not always repeated.
Tests used:
[1] = molecular target: β1 receptors, guinea pig right atria (Cavia porcellus, UniProt H0W3H1); test: cell-based; conditions: Table I; guinea pig right atria, vs isoproterenol; -log KB; read-out: PA2 Rt. Atria (converted)
Protocol: Each tissue was suspended between a fixed glass rod and a Statham Universal Transducer connected to a Beckman recorder. Atria were allowed to beat spontaneously under a loading tension of approximately 0.5 gm. Intrinsic depressant or stimulant activity was determined for each compound by progressively increasing concentrations in the tissue baths at 60-minute intervals. Tissues were not washed between increments. The maximum concentration showing little or no cardiodepressant activity was chosen for blockade experiments. Changes in rate in response to isoproterenol, a standard β-receptor agonist, were measured in the absence and presence of test compounds. Spiral strips of guinea pig trachea were suspended under 5 gm resting tension and incubated with phentolamine, tropolone and cocaine. Active tension was generated by addition of carbachol (3.0×10^-7 M) and decreases in tension in response to isoproterenol were quantitated. Cumulative concentration-response curves were produced with isoproterenol both before and after 60-minute incubation of test compounds with atria and trachea. […] The blocking potency of test compounds was estimated by computing pA2 values (-log KB) by the method of Furchgott, the Pharmacological Differentiation of Adrenergic Receptors, Ann. […] The degree of cardioselectivity was estimated from the ratio, KB trachea/KB atria (10^(pA2 atria-pA2 trachea)). A ratio greater than one indicates cardioselectivity. Test drugs were dissolved in distilled water and added to the bath (30 ml) in a volume of 10 or 100 μl.

[2] = test system: heart rate response to isoproterenol; test: Duration and potency of beta-blocking action in vivo, 3-hour infusion in anesthetized dogs, isoproterenol challenge; parameters: species or system dog; conditions: Table II; for Recovery Time 50%: 50% recovery from β-blockade after termination of infusion; for Recovery Time 80%: 80% recovery from β-blockade after termination of infusion; for % I, percent inhibition of heart rate response to isoproterenol: end of 3-hour infusion, isoproterenol 0.5 μg/kg
Protocol: The duration of β-blockade was determined In vivo using pentobarbital-anesthetized dogs instrumented for measurement of heart rate using a Beckman cardiotachometer triggered electronically by a phasic aortic blood pressure signal. Both vagus nerves were served in the cervical region and the animals were mechanically ventilated. The experimental design used employed a 3-hour infusion of test compound. Bolus doses of isoproterenol (0.5 μg/kg) were used to assess the degree of β-blockade and recovery from β-blockade after […] of the infusion. The doses were spaced at 10-minute intervals and were given before, during and following the infusion of test compounds. The infusion rate was adjusted so that at the end of the 3-hour infusion period the degree of isoproterenol inhibition averaged about 50% of control. Following termination of blocker infusion, percent recovery from β-blockade was computed and the time associated with 80% recovery estimated.
^c Time in minutes for 50% recovery from 50% blockade levels after 3
Infusions of drug. Number of experiments is equal to or greater than thre
for each compound unless noted otherwise. Tabulated data are mean values
^c The betablocking activities were evaluated Invivo in a canine
model. The betablocker was infused in the animal for 3 hours with the dos
adjusted to give approximately 50%. blockage of the Isoproternolinduced
tachycardia. The infusion was then terminated and the time required for
80% recovery of blockade was recorded as duration of action of the
compound. The amount of drug infused during the 3 hours was averaged and
expressed as potency in ug/kg/min.

[3] = Enzymatic hydrolysis by dog liver homogenate (procedure C); assay type: in vitro ADME; conditions: for remaining at 1 h / remaining at 2 h / half-life: dog, liver homogenate; for remaining at 1 h / remaining at 2 h: 37° C., procedure C; for remaining at 1 h: read-out: % Drug remaining, 1 HR, dog liver homogenate; for remaining at 2 h: read-out: % Drug remaining, 2 HR, dog liver homogenate; for half-life: approximate value, determined by procedure C, read-out: T1/2 dog liver homogenate
Text: (§1) Chemicals--Acetonitrile was "HPLC" grade. Distilled water was used to dissolve the compounds and 0.01 N HCl was used to dissolve compounds requiring an acidic pH for dissolution. Enzyme Source--Fresh aqueous humor was collected from eyes of dogs using a 23-gauge needle while fresh dog blood was collected into heparinized Vacutainer tubes. Fresh liver was homogenized in 0.9% NaCl using a Potter-Elvehjem Teflon pestle and glass homogenizer to make a 25% (W/V) homogenate. […] Denatured tissue controls were prepared by adding 2.0 ml of acetonitrile into 0.5 ml of aqueous humor, blood, or liver homogenate to destroy esterase activities prior to addition of the β-blockers. These controls were then incubated at 37° C. for 120 min. […] Sample Processing and Data Analyses--All samples were centrifuged at 4000 RPM for 10 min to sediment denatured proteins. The resultant supernatants were transferred to WISP.cndot. vials and analyzed using an HPLC assay developed for beta blockers. The hydrolysis of β-blockers by aqueous humor, blood, and liver homogenate was determined by disappearance of the compounds. The extent of enzymatic hydrolysis by each tissue was determined by comparing the amount of each compound (absolute peak area) recovered at each time point to the amount of each compound (absolute peak area) in denatured tissue control and aqueous control samples.

[4] = Enzymatic hydrolysis by dog aqueous humor (procedure C); assay type: in vitro ADME; conditions: for remaining at 1 h / remaining at 2 h: 37° C., procedure C; for remaining at 1 h: read-out: % Drug remaining, 1 HR, dog aqueous humor; for remaining at 2 h: read-out: % Drug remaining, 2 HR, dog aqueous humor; for half-life: approximate value, determined by procedure C, read-out: T1/2 dog aqueous humor; for metabolised at 2 h: two hours, read-out: hydrolyzed in aqueous humor after two hours
Text: as §1

[5] = Half-life in dog whole blood (procedure D); assay type: in vitro ADME; conditions: 37° C., read-out: T1/2 dog blood
Protocol: (§2) In each experiment, 1 ml of a solution containing 50 μg of the test compound was added to 1 ml of whole blood or 1 ml of a 33% (w/v) liver homogenate. The samples were incubated in a Dubnoff shaking metabolic incubator for 2.5, 5.0, 10.0, 20.0, 30.0 and 60.0 minutes at 37° C. At the designated time periods, the test mixtures were removed from the incubator and transferred to a 0° C. ice bath. Acetonitrile (2 ml) was immediately added and the mixtures were mixed to stop enzymatic hydrolysis. Zero time samples were prepared by adding 2 ml of acetonitrile to denature the proteins prior to addition of the test compounds. After centrifugation to sediment denatured proteins, 2 ml of the supernatant was removed and analyzed by high pressure liquid chromatography, using a mobile phase of 60% acetonitrile/40% 0.05 M sodium phosphate buffer (pH 6.6), a U.V. detector and Waters μ Bondapak Phenyl column.
(§3) The half life of each test compound was determined graphically by plotting the decrease in concentrations as a function of time.

[6] = Half-life in dog liver homogenate (procedure D); assay type: in vitro ADME; conditions: 37° C., read-out: T1/2 dog liver homogenate
Protocol: as §2, §3

Chain of β1 receptors, guinea pig right atria (H0W3H1 1-470): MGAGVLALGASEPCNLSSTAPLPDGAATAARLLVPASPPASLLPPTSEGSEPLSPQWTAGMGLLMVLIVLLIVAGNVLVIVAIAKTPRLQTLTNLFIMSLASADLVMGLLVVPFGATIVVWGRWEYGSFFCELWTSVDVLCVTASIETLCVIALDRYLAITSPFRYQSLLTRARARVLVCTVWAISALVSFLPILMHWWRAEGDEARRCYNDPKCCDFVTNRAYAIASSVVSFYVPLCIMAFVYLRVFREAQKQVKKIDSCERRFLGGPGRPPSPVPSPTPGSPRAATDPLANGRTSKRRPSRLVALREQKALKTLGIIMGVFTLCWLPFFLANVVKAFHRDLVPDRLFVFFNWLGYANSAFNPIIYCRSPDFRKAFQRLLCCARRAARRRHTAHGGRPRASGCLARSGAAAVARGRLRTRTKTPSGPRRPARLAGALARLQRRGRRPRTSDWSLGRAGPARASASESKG

| Kb [1] [nM] | remaining at 1 h [3] [%] | remaining at 2 h [3] [%] | half-life [3] [h] | hydrolysis in liver homogenate ([3]; within 60 minutes) | remaining at 1 h [4] [%] | remaining at 2 h [4] [%] | half-life [4] [h] | metabolised at 2 h [4] [%] | half-life [5] [h] | half-life [6] [h] | metabolised at 1 h ([4]; one hour, read-out: hydrolyzed in aqueous humor after one hour) [%] | SMILES | Recovery Time 50% [2] | Recovery Time 80% [2] | % I, percent inhibition of heart rate response to isoproterenol [2] |
| --- | --- | --- | --- | --- | --- | --- | --- | --- | --- | --- | --- | --- | --- | --- | --- |
| 50.1 | 0 | 0 | < 1 | completely hydrolyzed | 93 | 93 | > 2 | 7 | 1.03 ± 0.133 | 2.78 |  | COC(=O)c1ccccc1OCC(O)CNCCNC(C)=O (stereo not shown) [Example I, Methyl 2-[2-Hydroxy-3-[N-2(-acetamidoethyl)amino]propoxy]benzoate] | 8 ± 1 min | 18 ± 1 min | 54 ± 2% |
| 7.94 | 0 | 0 | < 1 |  | 94 | 91 | > 2 |  | 1.03 ± 0.05 | > 3 |  | COC(=O)c1ccccc1OCC(O)CNCCNC(=O)C(C)C (stereo not shown) [II, Methyl 2-[2-Hydroxy-3-[N-[2-(2-methylpropionamido)ethyl]amino]propoxy]benzoate] | 7 ± 1 min | 17 ± 1 min | 59 ± 2% |
| 5.01 | 0 | 0 | < 1 |  | 100 | 98 | > 2 | 2 | 1.22 ± 0.267 | 2.15 | 0 | COC(=O)c1ccccc1OCC(O)CNCCNC(=O)Cc1ccccc1 (stereo not shown) [III, Methyl 2-[2-Hydroxy-3-[N-[2-(phenylacetamido)ethyl]amino]propoxy]benzoate] | 20 min and 19 min | 40 min and 45 min | 57% and 60% |

— US4906661A, “Esters of aryloxypropanolamine derivatives” (E. I. Du Pont de Nemours and Company, priority 1989, dated 1990)
